Laboratory results taken from US9820951B2, “Pulmonary disease treatment and diagnosis based on Arhgef1” (NATIONAL JEWISH HEALTH, A NON-PROFIT ORGANIZATION, priority 2011, dated 2017).

Experiments:
MMP9 [1] = assay: MMP9 activity by zymography in conditioned media of human peripheral blood monocytes cultured on fibronectin; format: cell-based
Protocol: (§1) FIG. 5. TP-induced MMP9 production is only partially dependent on COX activity. A) PEMs were cultured on fibronectin for 24 hours with 5% FCS, washed then treated with different concentration of aspirin or 1.6 μM PTXA2 at for an additional 24 hours without FCS. MMP9 activity was determined by zymography from supernatants of wild type (open) or Arhgef1−/− (filled) macrophages. Activity was normalized to activity generated from cells cultured on fibronectin without treatment. B) MMP9 activity in conditioned media from peripheral blood monocytes cultured as described in panel A. Data represents mean±SE (n=3 independent donors).
Tissue-culture 96-well plates (Costar high binding catalogue number 3590) were coated with 10 μg/ml of murine fibronectin (Molecular Innovations, Nori, Minn.; catalogue number MFBN) or human fibronectin (Molecular Innovations; catalogue number HFBN) in DPBS without Ca^2+ or Mg^2+ (Mediatech, Inc., Manassas, Va.) for 2 h at room temperature. […] PGE2 and TXB2 were measured in conditioned medium by ELISA according to the manufacturer's instructions (ElisaTech, Aurora, Colo.). […]
Peripheral blood monocytes were isolated from whole blood of healthy volunteers using protocols approved by the National Jewish Health Human Subjects Institutional Review Board. […] This procedure consistently yields monocyte purities of >80% as assessed by flow cytometry. […]

Mmp9 [2] = assay: MMP9 activity by gelatin zymography in conditioned media of mouse peritoneal macrophages cultured on fibronectin; format: cell-based; conditions: for maximal inhibition of fibronectin-induced MMP9 production/activity: both wild type and Arhgef1-deficient macrophages, aspirin up to 20 mM, L-161,982, PTA2 1.56 or 6.25 μM, L-655,240 28 μM
Protocol: as §1
FIG. 6. The antioxidant mimetic MnTE-2PyP reduces MMP9 activity in macrophages. PEMs were cultured on fibronectin for 24 hours with 5% FCS, washed then treated with MnTE-2PyP at the indicated concentrations for an additional 24 hours without FCS. MMP9 activity was determined by zymography from supernatants of wild type (open) or Arhgef1−/− (filled) macrophages. Activity was normalized to activity generated from cells cultured on fibronectin without treatment.
FIG. 11. Cyclooxygenase activity but not EP4 receptor signaling is required for MMP9 production by murine macrophages cultured on fibronectin. A, representative MMP9 gelatin zymograms of conditioned media from peritoneal macrophages cultured on either plastic (ctl) or FN and treated with increasing concentrations of aspirin (1.25, 5.0, and 20 mM, respectively). Wild type (+/+) and Arhgef1^−/− (−/−) samples from separate zymograms are shown. Molecular weight standards and respective enzymatic activities of MMP9 and MMP2 are shown. B, quantitation of MMP9 activity as determined by densitometric analysis of zymograms in A. MMP 9 activity is shown in arbitrary units and represents n=6 for both wild type (open bars) and Arhgef1^−/− (black bars) samples. The results are compiled from two independent experiments. The data represent the means±S.E. *, p<0.05 Student's two-tailed t test compared with conditioned media from cells cultured on plastic. #, p<0.05 Student's two-tailed test comparing conditioned media from wild type cells to Arhgef1^−/− cells cultured under identical conditions. $, p<0.05 Student's two-tailed t test compared with conditioned media from cells cultured on fibronectin. C, quantitation of MMP9 activity in conditioned media from macrophages cultured on fibronectin in the presence of the EP4 antagonist L161,982 (10 μM). MMP9 activity was normalized to fibronectin response for each genotype. The results are compiled from two independent experiments with wild type (open bars, n=5) and Arhgef1^−/− (black bars, n=5) samples. The data represent the means±S.E. *, p<0.05 Student's two-tailed t test compared with conditioned media from cells cultured on plastic. #, p<0.05 Student's two-tailed t test compared with conditioned media from cells cultured on fibronectin.
FIG. 12. Thromboxane receptor signaling is necessary for fibronectin-induced MMP9 production by macrophages and is attenuated by Arhgef1. A, representative gelatin zymograms of conditioned media from macrophages cultured on plastic (ctl) or FN and treated with 1.56 or 6.25 μM of the thromboxane receptor antagonist PTA2. Wild type (+/+) and Arhgef1^−/− (−/−) samples from separate zymograms are shown. B, quantitation of MMP9 activity as determined by densitometric analysis of zymograms in A. The results are representative of two independent experiments. C, representative zymograms from conditioned media from macrophages cultured on plastic or fibronectin and treated with 28 μM of the thromboxane receptor antagonist L-655,240. D, quantitation of MMP9 activity as determined by densitometric analysis of zymograms in C. The results are compiled from two independent experiments with n=4 for both wild type (open bars) and Arhgef1^−/− (black bars) samples. […]

| SMILES | fibronectin-mediated MMP9 activity (effect in words) (MMP9 [1]; human peripheral blood monocytes, 1.6 μM PTXA2) | maximal inhibition of fibronectin-induced MMP9 production/activity (Mmp9 [2]) | fibronectin-mediated MMP9 activity (effect in words) (Mmp9 [2]; mouse macrophages, wild type and Arhgef1−/−, 1.6 μM PTXA2, 28 μM L-655,240) | reduction of MMP9 activity (MMP9 [1]; human monocytes on fibronectin, highest aspirin concentration 5 mM, 24 h) | reduction of MMP9 activity (Mmp9 [2]; mouse peritoneal macrophages on fibronectin, highest aspirin concentration 5 mM, 24 h) |
| --- | --- | --- | --- | --- | --- |
| CCCCC[C@@H](O)/C=C/[C@H]1C[C@H]2C[C@@H]([C@@H]1C/C=C\CCCC(=O)O)C2(C)C (relative stereo) [PTXA2, (18-(1alpha,2beta(Z),3alpha(1E,3S*),5alpha))-7-(3-(3-Hydroxy-1-octenyl)-6,6-dimethylbicyclo(3.1.1)hept-2-yl)-5-heptenoic acid] | virtually ablated fibronectin-mediated MMP9 activity | 80-85% | virtually ablated fibronectin-mediated MMP9 activity | – | – |
| CC(=O)Oc1ccccc1C(=O)O [aspirin] | – | 70-75% | – | 40-50% | 40-50% |
